Laboratory results: patent publication EP0044212B1, “Herbicidal o-alkylsulfonyloxy- and o-alkylsulfonylamino-benzenesulfonamides” (E.I. DU PONT DE NEMOURS AND COMPANY, priority 1980, dated 1982)

How the values were obtained:
Dallisgrass = assay: Test B pre-emergence on Fallsington silt loam; type: in vivo, Paspalum dilatatum; set-up: scale not given here; details: 28 days
Excerpt: (§1) Two plastic bulb pans were filled with fertilized and limed Fallsington silt loam soil. One pan was planted with corn, sorghum, Kentucky bluegrass and several grassy weeds. The other pan was planted with cotton, soybeans, purple nutsedge (Cyperus rotundus), and several broadleaf weeds. The following grassy and broadleaf weeds were planted: crabgrass (Digitaria sanguinalis), barnyardgrass (Echinochloa crusgalli), wild oats (Avena fatua), johnsongrass (Sorghum halepense), dallisgrass (Paspalum dilatatum), giant foxtail (Setaria faberii), cheatgrass (Bromus secalinus), mustard (Brassica arvensis), cocklebur (Xanthium pensylvanicum), pigweed (Amaranthus retroflexus), morningglory (Ipomoea hederacea), cassia (Cassia tora), teaweed (Sida spinosa), velvetleaf (Abutilon theophrasti), and jimsonweed (Datura stramonium). A 12.5 cm diameter plastic pot was also filed with prepared soil and planted with rice and wheat. Another 12.5 cm pot was planted with sugarbeets. The above four containers were treated pre- emergence with several test compounds within the scope of the invention.
(§2) Twenty-eight days after treatment, the plants were evaluated and visually rated for response to the chemical treatments utilizing the rating system described previously for Test A. The data are summarized in Table B.

Morningglory = assay: Test B pre-emergence on Fallsington silt loam; type: in vivo, Ipomoea hederacea; details: 0.06 kg/ha, 28 days
Excerpt: as §1, §2

Soybean = assay: Test B pre-emergence on Fallsington silt loam; type: in vivo, soybeans; details: 28 days
Excerpt: as §1, §2

Wheat [1] = assay: Test B pre-emergence on Fallsington silt loam; type: in vivo; set-up: scale not given here; details: 28 days
Excerpt: as §1, §2

Corn [2] = assay: Test B pre-emergence on Fallsington silt loam; type: in vivo; set-up: scale not given here; details: 28 days
Excerpt: as §1, §2

Cassia = assay: Test B pre-emergence on Fallsington silt loam; type: in vivo, Cassia tora; details: 0.06 kg/ha, 28 days
Excerpt: as §1, §2

Nutsedge [3] = assay: Test B pre-emergence on Fallsington silt loam; type: in vivo, Cyperus rotundus; details: 28 days
Excerpt: as §1, §2

Cheatgrass = assay: Test B pre-emergence on Fallsington silt loam; type: in vivo, Bromus secalinus; details: 28 days
Excerpt: as §1, §2

Crabgrass = assay: Test B pre-emergence on Fallsington silt loam; type: in vivo, Digitaria sanguinalis; set-up: scale not given here; details: 28 days
Excerpt: as §1, §2

Wild Oats [4] = assay: Test B pre-emergence on Fallsington silt loam; type: in vivo, Avena fatua; set-up: scale not given here; details: 28 days
Excerpt: as §1, §2

Barnyardgrass [5] = assay: Test B pre-emergence on Fallsington silt loam; type: in vivo, Echinochloa crusgalli; details: 28 days
Excerpt: as §1, §2

Ky. bluegrass = assay: Test B pre-emergence on Fallsington silt loam; type: in vivo, Kentucky bluegrass; set-up: scale not given here; details: 28 days
Excerpt: as §1, §2

Barnyardgrass [6] = assay: Test F over-the-top soil/foliage treatment; type: in vivo, Echinochloa crusgalli; set-up: scale not given here; details: soil/foliage spray, ~14 days
Description: (§3) The test chemicals, dissolved in a non-phytotoxic solvent, were applied in an overall spray to the foliage and surrounding […] of selected plant species. […] Approximately fourteen days after treatment, all species were visually compared to untreated controls and rated for response to treatment.
(§4) All plant species were seeded in Woodstown sandy loam soil and grown in a greenhouse. The following species were grown in soil contained in plastic pots (25 cm diameter by 13 cm deep): soybeans, cotton, alfalfa, corn, rice, wheet, sorghum, velvetleaf (Abutilon theophrasti), sesbania (Sesbania exaltata), Cassia (Cassia tora), morningglory (Ipomoea hederacea), jimsonweed (Datura stramonium), cocklebur (Xanthium pensylvanicum), crabgrass (Digitaria spp.), nutsedge (Cyperus rotundus), barnyardgrass (Echinochloa crusgalli), giant foxtail (Setaria faberii) and wild oats (Avena fatua). The following species were grown in soil in a paper cup (12 cm diameter by 13 cm deep): sunflower, sugarbeets, and mustard. All plants were sprayed approximately 14 days after planting.

Giant Foxtail = assay: Test F over-the-top soil/foliage treatment; type: in vivo, Setaria faberii; set-up: scale not given here; details: soil/foliage spray, ~14 days
Description: as §3, §4

Wheat [7] = assay: Test F over-the-top soil/foliage treatment; type: in vivo, wheet; set-up: scale not given here; details: soil/foliage spray, ~14 days
Description: as §3, §4

Alfalfa = assay: Test F over-the-top soil/foliage treatment; type: in vivo; set-up: scale not given here; details: soil/foliage spray; 0.06 kg/ha; ~14 days
Description: as §3, §4

Sorghum [8] = assay: Test F over-the-top soil/foliage treatment; type: in vivo; set-up: scale not given here; details: soil/foliage spray, ~14 days
Description: as §3, §4

Sugarbeets [9] = assay: Test B pre-emergence on Fallsington silt loam; type: in vivo; set-up: scale not given here; details: 0.25 kg/ha, 28 days
Excerpt: as §1, §2

Pigweed = assay: Test B pre-emergence on Fallsington silt loam; type: in vivo, Amaranthus retroflexus; details: 0.06 kg/ha, 28 days
Excerpt: as §1, §2

Sesbania = assay: Test F over-the-top soil/foliage treatment; type: in vivo, Sesbania exaltata; set-up: scale not given here; details: soil/foliage spray; 0.12 kg/ha; ~14 days
Description: as §3, §4

Sorghum [10] = assay: Test B pre-emergence on Fallsington silt loam; type: in vivo; details: 0.06 kg/ha, 28 days
Excerpt: as §1, §2

Sugarbeets [11] = assay: Test F over-the-top soil/foliage treatment; type: in vivo; details: soil/foliage spray; 0.06 kg/ha; ~14 days
Description: as §3, §4

Sunflower = assay: Test F over-the-top soil/foliage treatment; type: in vivo; details: soil/foliage spray, ~14 days
Description: as §3, §4

Corn [12] = assay: Test F over-the-top soil/foliage treatment; type: in vivo; details: soil/foliage spray, ~14 days
Description: as §3, §4

Mustard = assay: Test F over-the-top soil/foliage treatment; type: in vivo; details: soil/foliage spray, ~14 days
Description: as §3, §4

Jimsonweed = assay: Test F over-the-top soil/foliage treatment; type: in vivo, Datura stramonium; details: soil/foliage spray; 0.12 kg/ha; ~14 days
Description: as §3, §4

Nutsedge [13] = assay: Test F over-the-top soil/foliage treatment; type: in vivo, Cyperus rotundus; set-up: scale not given here; details: soil/foliage spray, ~14 days
Description: as §3, §4

Wild Oats [14] = assay: Test F over-the-top soil/foliage treatment; type: in vivo, Avena fatua; set-up: scale not given here; details: soil/foliage spray, ~14 days
Description: as §3, §4

Cocklebur = assay: Test B pre-emergence on Fallsington silt loam; type: in vivo, Xanthium pensylvanicum; details: 0.25 kg/ha, 28 days
Excerpt: as §1, §2

Johnsongrass = assay: Test B pre-emergence on Fallsington silt loam; type: in vivo, Sorghum halepense; set-up: scale not given here; details: 28 days
Excerpt: as §1, §2

Work on `CCCS(=O)(=O)Oc1ccccc1S(=O)(=O)NC(=O)Nc1nc(OC)cc(OC)n1` [Compound 36, N-[(4,6-dimethoxypropimidin-2-yl)aminocarbonyl]-2-hydroxybenzenesulfonamide, 1-propanesulfonate] yielded a Dallisgrass response rating (Dallisgrass; 0.06 kg/ha) of 4G, a Dallisgrass response rating (Dallisgrass; 0.25 kg/ha) of 5G and a Morningglory response rating (Morningglory) of 4G. It also gave a Soybean response rating (Soybean; 0.06 kg/ha) of 2G, a Wheat response rating (Wheat [1]; 0.06 kg/ha) of 0 and a Wheat response rating (Wheat [1]; 0.25 kg/ha) of 0. The Corn response rating (Corn [2]; 0.06 kg/ha) was 3G, the Corn response rating (Corn [2]; 0.25 kg/ha) was 4G and the Cassia response rating (Cassia) was 6G. The Nutsedge response rating (Nutsedge [3]; 0.06 kg/ha) was 7G, the Cheatgrass response rating (Cheatgrass; 0.06 kg/ha) was 6G and the Cheatgrass response rating (Cheatgrass; 0.25 kg/ha) was 7G. For the same compound, the Crabgrass response rating (Crabgrass; 0.06 kg/ha) was 2G, the Crabgrass response rating (Crabgrass; 0.25 kg/ha) was 4G and the “Wild Oats response rating” value (Wild Oats [4]; 0.06 kg/ha) was 4G. The “Wild Oats response rating” value (Wild Oats [4]; 0.25 kg/ha) was 4G, the Barnyardgrass response rating (Barnyardgrass [5]; 0.06 kg/ha) was 4G and the “Ky. bluegrass response rating” value (Ky. bluegrass; 0.06 kg/ha) was 6G. For the same compound, the “Ky. bluegrass response rating” value (Ky. bluegrass; 0.25 kg/ha) was 7G.
`CCCS(=O)(=O)Oc1ccccc1S(=O)(=O)NC(=O)Nc1nc(C)nc(OC)n1` [Compound 39, 2-hydroxy-N-[(4-methoxy-6-methyl-1,3,5-triazin-2-yl)aminocarbonyl]benzenesulfonamide, 1-propanesulfonate] gave a Barnyardgrass response rating (Barnyardgrass [6]; 0.007 kg/ha) of 2G, a Barnyardgrass response rating (Barnyardgrass [6]; 0.015 kg/ha) of 0 and a Barnyardgrass response rating (Barnyardgrass [6]; 0.03 kg/ha) of 3G. For the same compound, the Barnyardgrass response rating (Barnyardgrass [6]; 0.06 kg/ha) was 0, the Barnyardgrass response rating (Barnyardgrass [6]; 0.12 kg/ha) was 0 and the “Giant Foxtail response rating” value (Giant Foxtail; 0.007 kg/ha) was 1G. The “Giant Foxtail response rating” value (Giant Foxtail; 0.03 kg/ha) was 2G, the “Giant Foxtail response rating” value (Giant Foxtail; 0.06 kg/ha) was 0 and the “Giant Foxtail response rating” value (Giant Foxtail; 0.12 kg/ha) was 0. For the same compound, the Dallisgrass response rating (Dallisgrass; 0.06 kg/ha) was 3G, the Dallisgrass response rating (Dallisgrass; 0.25 kg/ha) was 0 and the Morningglory response rating (Morningglory) was 9G. The Soybean response rating (Soybean; 0.06 kg/ha) was 3G, the Soybean response rating (Soybean; 0.25 kg/ha) was 4G and the Wheat response rating (Wheat [7]; 0.007 kg/ha) was 0. It also gave a Wheat response rating (Wheat [7]; 0.015 kg/ha) of 0, a Wheat response rating (Wheat [7]; 0.03 kg/ha) of 0 and a Wheat response rating (Wheat [7]; 0.06 kg/ha) of 0. It also gave a Wheat response rating (Wheat [7]; 0.12 kg/ha) of 0, an Alfalfa response rating (Alfalfa) of 10C and a Sorghum response rating (Sorghum [8]; 0.007 kg/ha) of 3G. It also gave a Sorghum response rating (Sorghum [8]; 0.03 kg/ha) of 5G, a Sorghum response rating (Sorghum [8]; 0.06 kg/ha) of 0 and a Sorghum response rating (Sorghum [8]; 0.12 kg/ha) of 0. The Sugarbeets response rating (Sugarbeets [9]) was 10C, the Wheat response rating (Wheat [1]; 0.06 kg/ha) was 0 and the Wheat response rating (Wheat [1]; 0.25 kg/ha) was 0. The Corn response rating (Corn [2]; 0.06 kg/ha) was 2G, the Corn response rating (Corn [2]; 0.25 kg/ha) was 4G and the Pigweed response rating (Pigweed) was 4G. The Sesbania response rating (Sesbania) was 10C, the Sorghum response rating (Sorghum [10]) was 4G and the Sugarbeets response rating (Sugarbeets [11]) was 10C. For the same compound, the Sunflower response rating (Sunflower; 0.015 kg/ha) was 10C, the Sunflower response rating (Sunflower; 0.06 kg/ha) was 10C and the Sunflower response rating (Sunflower; 0.12 kg/ha) was 10C. It also gave a Corn response rating (Corn [12]; 0.007 kg/ha) of 2G, a Corn response rating (Corn [12]; 0.06 kg/ha) of 0 and a Corn response rating (Corn [12]; 0.12 kg/ha) of 0. It also gave a Mustard response rating (Mustard; 0.06 kg/ha) of 10C, a Mustard response rating (Mustard; 0.12 kg/ha) of 10C and a Nutsedge response rating (Nutsedge [3]; 0.06 kg/ha) of 4G. For the same compound, the Nutsedge response rating (Nutsedge [3]; 0.25 kg/ha) was 6G, the Jimsonweed response rating (Jimsonweed) was 0 and the Nutsedge response rating (Nutsedge [13]; 0.007 kg/ha) was 5G. For the same compound, the Nutsedge response rating (Nutsedge [13]; 0.015 kg/ha) was 0, the Nutsedge response rating (Nutsedge [13]; 0.03 kg/ha) was 3G and the Nutsedge response rating (Nutsedge [13]; 0.06 kg/ha) was 0. It also gave a Nutsedge response rating (Nutsedge [13]; 0.12 kg/ha) of 1G, a Cheatgrass response rating (Cheatgrass; 0.06 kg/ha) of 0 and a Cheatgrass response rating (Cheatgrass; 0.25 kg/ha) of 3G. For the same compound, the Crabgrass response rating (Crabgrass; 0.06 kg/ha) was 2G, the Crabgrass response rating (Crabgrass; 0.25 kg/ha) was 2G and the “Wild Oats response rating” value (Wild Oats [14]; 0.007 kg/ha) was 0. The “Wild Oats response rating” value (Wild Oats [14]; 0.03 kg/ha) was 2G, the “Wild Oats response rating” value (Wild Oats [14]; 0.06 kg/ha) was 0 and the “Wild Oats response rating” value (Wild Oats [14]; 0.12 kg/ha) was 0. For the same compound, the “Wild Oats response rating” value (Wild Oats [4]; 0.06 kg/ha) was 3G, the “Wild Oats response rating” value (Wild Oats [4]; 0.25 kg/ha) was 3G and the Cocklebur response rating (Cocklebur) was 10C. The Barnyardgrass response rating (Barnyardgrass [5]; 0.06 kg/ha) was 4G, the Barnyardgrass response rating (Barnyardgrass [5]; 0.25 kg/ha) was 5G and the “Ky. bluegrass response rating” value (Ky. bluegrass; 0.06 kg/ha) was 2G. For the same compound, the “Ky. bluegrass response rating” value (Ky. bluegrass; 0.25 kg/ha) was 4G, the Johnsongrass response rating (Johnsongrass; 0.06 kg/ha) was 4G and the Johnsongrass response rating (Johnsongrass; 0.25 kg/ha) was 3G.
